The values below come from patent US6689799B1, “1,4-dihydropyridine-5-carboxylic acid ester derivatives and method for the preparation thereof” (Rephartox, priority 1999, dated 2004).

In brackets after ≈: the same amount, converted by molar mass. Like-named read-outs stand apart in the source and are kept apart here. A value given as a limit tells only on which side of the number the result lay.

The subject of series [1] is HeLa-cells. Kind of series: Minimal toxic concentration, cell morphology of HeLa-cells. In kind it is cell-based.
The test system of series [2] is TK − VZV 07/1 strain. The series can be described thus: microbe, parasite or virus in culture. Conditions: Human alphaherpesvirus 3, read-out: IC50: concentration at which the virus production is inhibited by 50%. In kind it is cell-based, Varicella zoster virus. As for the experimental part: (§1) The compounds were tested for antiviral activity by the Rega Institute (Leuven, Belgium).
(§2) The standard experiments for determining the biological activity of the compounds according to the invention were performed with CMV (Cytomegalovirus), varicella zoster virus, and RSV (respiratory syncytial virus).

For series [3], the system named is TK − VZV YS/R strain. The series can be described thus: microbe, parasite or virus in culture. Format: cell-based, Varicella zoster virus. To be noted: Human alphaherpesvirus 3, read-out: IC50: concentration at which the virus production is inhibited by 50%. The method, then:
as §1, §2

The nature of series [4]: Cytotoxicity, reduction of cell growth (Table 2, VZV). In kind it is cell-based. To be noted: Table 2, varicella zoster virus.
The test system of series [5] is Respiratory syncytial virus. The series can be described thus: Respiratory syncytial virus antiviral activity. Format: cell-based. To be noted: human respiratory syncytial virus, read-out: IC50: concentration at which the virus production is inhibited by 50%. The method, then: as §1, §2
For series [6], the system named is Cytomegalovirus Davis strain. Kind of series: Cytomegalovirus antiviral activity, Davis strain. Format: cell-based. To be noted: Human betaherpesvirus 5, read-out: IC50: concentration at which the virus production is inhibited by 50%. As for the experimental part:
(§3) The compounds were tested for antiviral activity by the Rega Institute (Leuven, Belgium). The standard experiments for determining the biological activity of the compounds according to the invention were performed with CMV (Cytomegalovirus), varicella zoster virus, and RSV (respiratory syncytial virus). [table]

The test system of series [7] is Cytomegalovirus AD-169 strain. Kind of series: Cytomegalovirus antiviral activity, AD-169 strain. In kind it is cell-based. To be noted: Human betaherpesvirus 5, AD169, read-out: IC50: concentration at which the virus production is inhibited by 50%. The method, then: as §3
Series [8] can be described thus: Cytotoxicity, reduction of cell growth (Table 1, CMV). To be noted: Table 1, cytomegalovirus. Format: cell-based.
[9] abbreviates: microscopically detectable change in normal cell morphology of HeLa-cells.

In the case of “4-[{2-(7-Coumarinyloxy)ethoxy}phenyl)-3,5-dimethoxycarbonyl-2,6-dimethyl-1,4-dihydropyridine.ethylacetate [Example 30]”, the “MTC: Minimal toxic concentration” value in series [1] is 100 mg/mL.

The term CC50 denotes the concentration that lowers cell viability or growth by half. Turning to `COC(=O)C1=C(C)NC(C)=C(C(=O)OCCOc2cc(=O)oc3ccccc23)C1c1ccccc1` (centres unmarked) [Example 1, 2,6-Dimethyl-4-phenyl-5-methoxycarbonyl-3-[{2-(coumarin-4-yloxy)ethoxy}carbonyl]-1,4-dihydropyridine], the values for the IC50 in series [2], in [3] and in series [5] were 1.5 µg/mL (≈ 3.15 µM), 1 µg/mL (≈ 2.1 µM) and 2.4 µg/mL (≈ 5.05 µM), respectively. This molecule yielded a CC50 in series [4] of 4.5 µg/mL (≈ 9.46 µM). For the same molecule, in [1] (setting [9]), the “MTC: Minimal toxic concentration” value was 100 mg/mL.

For `COC(=O)C1=C(C)NC(C)=C(C(=O)OCCCOc2cc(=O)oc3ccccc23)C1c1ccccc1` (centres unmarked) [Example 4, 3-[{3-(Coumarin-4-yloxy)-1-propoxy}carbonyl]-2,6-dimethyl-5-methoxycarbonyl-4-phenyl-1,4-dihydropyridine], the IC50 in [5] was determined as 0.16 µg/mL (≈ 0.327 µM). For the same molecule, the “MTC: Minimal toxic concentration” value in series [1] (setting [9]) turned out to be 2.8 mg/mL.

The term melting point denotes the temperature, or range, at which the solid turns liquid. Turning to `CCOC(=O)C1=C(C)NC(COc2cc(=O)oc3ccccc23)=C(C(=O)OCC)C1c1cccc([N+](=O)[O-])c1` (centres unmarked) [Example 20, 2-(Coumarin-4-yloxymethyl)-3,5-diethoxycarbonyl-6-methyl-4-(3-nitrophenyl)-1,4-dihydropyridine], the melting point lay within 76 to 79 °C. Also, in [2], the IC50 is 0.07 µg/mL (≈ 0.131 µM). Besides, the IC50 in series [3] came out at 0.05 µg/mL (≈ 0.0935 µM). The molecule also showed a CC50 in series [4] of 1.6 µg/mL (≈ 2.99 µM).

On to `COC(=O)C1=C(C)NC(C)=C(C(=O)OCC(C)(C)COc2cc(=O)oc3ccccc23)C1c1ccccc1` (centres unmarked) [Example 6, 3-[{3-(Coumarin-4-yloxy)-2,2-dimethyl-1-propoxy}carbonyl]-2,6-dimethyl-5-methoxycarbonyl-4-phenyl-1,4-dihydropyridine], for which the IC50 is 2 µg/mL (≈ 3.86 µM) in [2] and 1 µg/mL (≈ 1.93 µM) in series [3]. For the same molecule, it took 8.5 µg/mL (≈ 16.4 µM) to reach half-maximal cytotoxicity in series [4] (CC50).

On to `Nc1nc2c(ncn2COC(CO)CO)c(=O)[nH]1` [DHPG, 9-[(1,3-dihydroxy-2-propoxy)methyl]guanine, reference compound], for which the IC50 in series [6] and in series [7] was 1.8 µg/mL (≈ 7.05 µM) in each case. For the same molecule, the CC50 in [8] is greater than 200 µg/mL.

For `CCOC(=O)C1=C(C)NC(COc2cc(=O)oc3ccccc23)=C(C(=O)OCC)C1c1ccccc1C(F)(F)F` (centres unmarked) [Example 24, 2-(Coumarin-4-yloxymethyl)-3,5-diethoxycarbonyl-6-methyl-4-(2-trifluoromethylphenyl)-1,4-dihydropyridine], the IC50 came out at 2.3 µg/mL (≈ 4.13 µM) in series [6]; 2.5 µg/mL (≈ 4.48 µM) in [2]; 1.5 µg/mL (≈ 2.69 µM) in [3]; 0.8 µg/mL (≈ 1.43 µM) in [5]; 2.4 µg/mL (≈ 4.3 µM) in series [7]. Besides, the CC50 in series [4] and in series [8] was greater than 200 µg/mL throughout. In [1] (setting [9]), the “MTC: Minimal toxic concentration” value was determined as 4.0 mg/mL.
